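Compound exposure: 48 hours, 5 concentrations, 96-well plates. The concentration for 50% growth inhibition is given as GI50. TGI is the concentration that stops growth completely.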
Experiments:
Assay in all cases: NCI tumour cell line growth inhibition, 48 h
HT29 colon = system: HT29 colon
NCI-H226 lung = system: NCI-H226 lung
SF-268 CNS = system: SF-268 CNS
SF-295 CNS = system: SF-295 CNS
SK-MEL-2 melanoma = system: SK-MEL-2 melanoma
TK-10 renal = system: TK-10 renal
U251 CNS = system: U251 CNS
UO-31 renal = system: UO-31 renal

Compound	GI50 (HT29 colon)	TGI (HT29 colon)	GI50 (NCI-H226 lung)	TGI (NCI-H226 lung)	GI50 (SF-268 CNS)	TGI (SF-268 CNS)	GI50 (SF-295 CNS)	TGI (SF-295 CNS)	GI50 (SK-MEL-2 melanoma)	TGI (SK-MEL-2 melanoma)	GI50 (TK-10 renal)	TGI (TK-10 renal)	GI50 (U251 CNS)	TGI (U251 CNS)	GI50 (UO-31 renal)	TGI (UO-31 renal)
C(=N\Nc1ccc2ccccc2n1)/c1ccccn1	0.536 µM	> 40.6 µM	0.508 µM	19 µM	0.41 µM	> 33.5 µM	0.348 µM	12.9 µM	0.511 µM	> 100 µM	0.375 µM	> 100 µM	0.413 µM	> 55 µM	0.304 µM	2.66 µM
Cc1cc(N(CCNc2ccnc3cc(Cl)ccc23)Cc2ccc3c(c2)OCO3)nc(N2CCCC2)n1	0.706 µM	3.66 µM	2.46 µM	6.86 µM	2.2 µM	7.16 µM	1.34 µM	2.88 µM	1.82 µM	3.62 µM	1.74 µM	3.8 µM	1.36 µM	3.21 µM	1.26 µM	2.99 µM
CCN1C(=O)N(CC)C2C1N=C(SC)N2/N=C/C=C/c1ccccc1OC (centres undefined)	0.357 µM		2.14 µM	> 52.3 µM	0.877 µM	> 57.7 µM	0.358 µM	> 37.4 µM	1.2 µM	> 39.3 µM	1.09 µM	> 58.7 µM	0.411 µM	> 33.1 µM	0.821 µM	> 47.3 µM
CCC(c1ccccc1)c1cc(C(C)(C)C)cc(C(C)(C)C)c1O (centres undefined)		28 µM		35.1 µM		28.9 µM		26.9 µM		29 µM		28.8 µM		31.5 µM		32.3 µM
COc1cnccc1Nc1nc(-c2nn(Cc3c(F)cc(OCCO)cc3F)c3ccccc23)ncc1OC	2.87 µM	16.4 µM	12.4 µM	31.9 µM	3.85 µM	15.9 µM	7.26 µM	24.9 µM	11 µM	27 µM	14.5 µM	27.7 µM	1.59 µM	3.76 µM	1.97 µM	8.43 µM
CCOC(=O)/C=C1/SC(=Nc2ccc(C#N)cc2)N(Cc2ccco2)C1=O	2.11 µM	4.61 µM	2.22 µM	4.76 µM	3.38 µM	13.7 µM	9.99 µM	26.6 µM	7.65 µM	25.3 µM	2.54 µM	8.19 µM	2.07 µM	4.06 µM	1.45 µM	2.86 µM
S=C(SSC(=S)N1CCCCC1)N1CCCCC1	14.3 µM	29 µM	34.6 µM	> 100 µM	17.4 µM	41.6 µM	40.1 µM	> 100 µM	25.1 µM	67.8 µM	22.9 µM	82.2 µM	12.2 µM	45.2 µM	19.2 µM	> 100 µM
C[C@]12CCC(=O)C[C@@H]1CC[C@@H]1[C@@H]2CC[C@]2(C)[C@@H](OC(=O)N(CCCl)N=O)CC[C@@H]12	2.75 µM	> 39 µM	11.9 µM	30.4 µM	0.0983 µM	8.85 µM	0.133 µM	> 45.4 µM	3.47 µM	16.8 µM	3.85 µM	27.7 µM	0.394 µM	14 µM	1.11 µM	10.5 µM

From PubChem BioAssay (NCI)
